According to patent US20250127136A1, “NOVEL METHOD FOR PROMOTING NODULATION IN PLANTS” (UNIVERSITE TOULOUSE III-PAUL SABATIER, priority 2015, published 2025):

Legend:
[1] = system: Glycine max; assay: Number of nodules in soybean plants inoculated with Bradirhizobium japonicum and watered with miPEP; type: in vivo; conditions: watering with 0.1 μM miPEP vs solvent (FIGS. 2, 9) or control peptide (FIG. 5)
Protocol: (§1) After sterilisation of the grains for 3 min in bleach diluted ¼, then rinsing with sterile water, the grains are incubated for 2 hours in water. Lastly, the grains are placed in a petri dish with damp paper towels at 28° C. Once sprouted, the grains are placed in a small pot containing oil dry® medium under a glass cover. After a few days' growth, the plants of which the development is uniform are selected for the experiment and transferred into a larger pot.
(§2) The bacteria are placed in culture in Campbel liquid medium (K2PO4:0.5 g/l, MgSO4 7H2O: 0.2 g/l, NaCl: 0.1 g/l, mannitol: 10 g/l, yeast extract: 2.5 g/l, Casamino acid: 0.5 g/l) (5 ml) at 28° C., then transferred to an Erlenmeyer flask containing 100 ml of Campbel medium. After a few days of culture, when the DO is 0.3 at 595 nm, the 100 ml of culture of B. japonicum were centrifuged for 30 min at 4000 rpm. The supernatant was discarded and the pellet resuspended in “caisson” culture medium (Lullien et al., Plant gene expression in effective and ineffective root nodules of alfalfa (Medicago sativa). Plant Mol Biol 9: 469-478, 1987) to achieve a DO of 0.05 at 595 nm. Each plant is inoculated with 20 ml of this solution. The plants are regularly watered with the “caisson” medium.
(§3) The treatment is performed by watering plants with the concentrated solution of miPEP or the equivalent of solvent solution for the control treatment. […]

[2] = system: nifD; assay: Expression of nifD revealed by nifD-LacZ fusions in nodules; type: in vivo, Glycine max; conditions: nodules of plants treated with miPEP172c vs control peptide (FIGS. 6 and 8)
Protocol: as §1, §2, §3

[3] = system: Hb2; assay: Expression of the gene Hb2 in roots of watered soybean plants (qRT-PCR); type: in vivo, Glycine max; conditions: plants watered with miPEP172c at 0,01 μM vs control peptide at 0.01 μM (FIG. 6)
Protocol: (§4) Each experiment was repeated from two to three times.
(§5) The plants are regularly watered with the “caisson” medium.
(§6) The treatments are performed every two days.

[4] = system: NIN; assay: Expression of the gene NIN in roots of watered soybean plants (qRT-PCR); type: in vivo, Glycine max; conditions: plants watered with miPEP172c at 0,01 μM vs control peptide at 0.01 μM (FIG. 6)
Protocol: as §4, §5, §6

[5] = system: nifH; assay: Expression of the gene nifH in roots of watered soybean plants (qRT-PCR); type: in vivo, Glycine max; conditions: plants watered with miPEP172c at 0,01 μM vs control peptide at 0.01 μM (FIG. 6)
Protocol: as §4, §5, §6

[6] = system: NNC1; assay: Expression of the gene NNC1 in roots of watered soybean plants (qRT-PCR); type: in vivo, Glycine max; conditions: plants watered with miPEP172c at 0,01 μM vs control peptide at 0.01 μM (FIG. 6)
Protocol: as §4, §5, §6

[7] = system: Glycine max; assay: Fresh pod weight of soybean plants watered with miPEP; type: in vivo; conditions: watering with 0.1 μM miPEP172c vs solvent (FIG. 4)
Protocol: as §1, §2, §3

[8] = system: miR172c; assay: Measurement of the expression of miR172c in roots of watered soybean plants (qRT-PCR); type: in vivo, Glycine max; conditions: plants watered with miPEP172c at 0.1 μM vs control (FIG. 1) or 0.01 μM vs control peptide (FIG. 6)
Protocol: as §4, §5, §6

[9] = system: Glycine max; assay: Nitrogen concentration in the aerial parts of soybean plants watered with miPEP; type: in vivo; conditions: watering with 0.1 μM miPEP172c vs solvent (FIG. 3)
Protocol: The “nitrogen content” corresponds to the concentration of nitrogen in the plant or in part of the plant. For example, it can be the concentration of nitrogen in the aerial parts in g of nitrogen per kg of dry leaf weight. This concentration of nitrogen can be determined by techniques known to a person skilled in the art. For example, one method consists of burning a sample of known mass at an elevated temperature (approximately 900° C.) in the presence of oxygen, leading to a release of carbon dioxide, water, and nitrogen. The gases are then passed over particular columns (such as an aqueous potassium hydroxide solution), which absorb the carbon dioxide and water. A column containing a detector of thermal conductivity at the end is then used to separate the nitrogen from all residual carbon dioxide and the water, and the content of residual nitrogen is quantified.
as §5, §6

[10] = system: Glycine max; assay: Root mass (fresh root weight) of soybean plants watered with miPEP; type: in vivo; conditions: watering with miPEP172c vs control peptide at 0.01 μM (FIG. 7)
Protocol: as §1, §2, §3

[11] = system: ENOD40-1; assay: Expression of the gene ENOD40-1 in roots of watered soybean plants (qRT-PCR); type: in vivo, Glycine max; conditions: plants watered with miPEP172c at 0,01 μM vs control peptide at 0.01 μM (FIG. 6)
Protocol: as §4, §5, §6

[12] = system: NSP1; conditions: plants watered with miPEP172c at 0,01 μM vs control peptide at 0.01 μM (FIG. 6)
Protocol: as §1, §2, §3

| Substance | number of nodules (per gram of fresh root weight) [1] | fixation of nitrogen (NifH expression by RT-qPCR and nifD::LacZ fusions) [2] | relative expression of the gene Hb2 [3] | relative expression of the gene NIN [4] | relative expression of the gene NifH [5] | relative expression of the gene NNC1 [6] | fresh pod weight [7] | relative expression of miR172c [8] | nitrogen content of the aerial parts [9] | development of the roots (fresh root weight) [10] | relative expression of the gene ENOD40-1 [11] | relative expression of the gene NSP1 [12] |
| --- | --- | --- | --- | --- | --- | --- | --- | --- | --- | --- | --- | --- |
| miPEP167c: peptide MKGVHHFFHHKYVGLRG coded by an open reading frame of the primary transcript of miR167c in Glycine max (Glycine max) | significantly increases | – | – | – | – | – | – | – | – | – | – | – |
| miPEP172c: peptide MWVLCLFCWPTYTHGS coded by an open reading frame of the primary transcript of miR172c in Glycine max (SEQ ID NO: 2; Glycine max) | significantly increases | effective fixation of nitrogen | increase | increase | increase | reducing | significantly increases | increases | significantly increases | No effect | increase | increase |
